In brackets after ≈: the same amount, converted by molar mass. Where two headings read alike, the source gives them in different places.
Assay: Solubility of cinacalcet in water as a function of pH
Type: physicochemical
Protocol: Calcium receptor-active compounds are known in the art. One example of a calcium receptor-active compound is cinacalcet HCl, which is described, for example, in U.S. Pat. No. 6,001,884. Such calcium receptor-active compounds may be insoluble or sparingly soluble in water, particularly in their non-ionized state. […] However, when the pH is about 1, the solubility decreases to about 0.1 mg/mL. Such limited solubility can reduce the number of formulation and delivery options available for these calcium receptor-active compounds. Limited water solubility can also result in low bioavailability of the compounds.

C[C@@H](NCCCc1cccc(C(F)(F)F)c1)c1cccc2ccccc12 [cinacalcet, N-(1-(R)-(1-naphthyl)ethyl]-3-[3-(trifluoromethyl)phenyl]-1-aminopropane]
solubility (aqueous buffer, pH ranges from about 3 to about 5, read-out: solubility): ~1600 µg/mL (≈ 4480 µM) | solubility (pH 1, simulated gastric fluid, pH about 1, read-out: solubility): ~100 µg/mL (≈ 280 µM) | solubility (pH 7, water, neutral pH, read-out: solubility in water): < 1 µg/mL
